Source: US11638428B2, “Nematocidal heterocyclic amides” (CORTEVA AGRISCIENCE LLC, priority 2015, dated 2023)

Test system: cucumber seedlings
Test: Test A: phytotoxicity to the cucumber seedlings of the test units
Format: in vivo
Details: 500 ppm active ingredient applied to soil
Procedure: Control of the southern root-knot nematode (Meloidogyne incognita) through contact and/or systemic means was evaluated in test units consisting of small open containers filled with a sandy soil mixture and cucumber seedlings. Test compounds were formulated using a solution containing 50% acetone and 50% water. […] Each test was replicated 3 times. After treatment, the test units were allowed to dry for 1 hour, after which time about 400 second-stage juvenile (J2) larvae and 800 eggs were pipetted into the soil. The test units were held at 27° C. and watered as needed for 7 days. Nematocidal efficacy was determined by the amount of root gall formation observed when compared to an untreated control. No gall formation was indicative of 100% nematode control. […] No nematode control rating was given to compounds showing significant phytotoxicity.

Row | SMILES | phytotoxicity
1 | CC(NC(=O)c1ccoc1Cl)C1CC1 (racemic) [Compound 11] | no significant phytotoxicity
2 | CC(NC(=O)c1sccc1C(C)(C)C)C(C)(C)C (single isomer, unassigned) [Compound 92] | no significant phytotoxicity
3 | CCC(C)C(C)NC(=O)c1ccoc1C (stereo not shown) [Compound 1] | no significant phytotoxicity
4 | Cc1occc1C(=O)N(C)C(C)C1CC1 (stereo not shown) [Compound 2] | no significant phytotoxicity
5 | Cc1occc1C(=O)NC(C)C [Compound 3] | no significant phytotoxicity
6 | Cc1occc1C(=O)NC(C)C(C)C (stereo not shown) [Compound 4] | no significant phytotoxicity
7 | CCCC(C)NC(=O)c1ccoc1C (stereo not shown) [Compound 5] | no significant phytotoxicity
8 | Cc1occc1C(=O)NC(C)C1CC1 (stereo not shown) [Compound 6] | no significant phytotoxicity
9 | Cc1occc1C(=O)NC(C)(C)C1CC1 [Compound 7] | no significant phytotoxicity
10 | CC(C)(NC(=O)c1ccoc1Cl)C1CC1 [Compound 8] | no significant phytotoxicity
11 | CC(C)C(C)(C)NC(=O)c1ccoc1Cl [Compound 10] | no significant phytotoxicity
12 | COCC(C)(C)NC(=O)c1ccoc1Cl [Compound 12] | no significant phytotoxicity
13 | CSCC(C)(C)NC(=O)c1ccoc1Cl [Compound 14] | no significant phytotoxicity
14 | CCC(C)NC(=O)c1ccoc1Cl (stereo not shown) [Compound 16] | no significant phytotoxicity
15 | CCCC(C)NC(=O)c1ccoc1Cl (stereo not shown) [Compound 17] | no significant phytotoxicity
16 | CC(C)(C)CC(C)(C)NC(=O)c1ccoc1Cl [Compound 18] | no significant phytotoxicity
17 | CC(C)CC(C)NC(=O)c1ccoc1Cl (stereo not shown) [Compound 19] | no significant phytotoxicity
18 | CC(NC(=O)c1ccoc1Cl)C1CCCC1 (stereo not shown) [Compound 20] | no significant phytotoxicity
19 | CC(NC(=O)c1ccoc1Cl)C1CCCCC1 (stereo not shown) [Compound 21] | no significant phytotoxicity
20 | CC(NC(=O)c1ccoc1Cl)C1(C)CC1 (stereo not shown) [Compound 22] | no significant phytotoxicity
21 | CC(NC(=O)c1ccoc1Cl)C1CCC1 (stereo not shown) [Compound 23] | no significant phytotoxicity

Row | SMILES | phytotoxicity
22 | CC(NC(=O)c1ccoc1Cl)C(F)(F)F (stereo not shown) [Compound 24] | no significant phytotoxicity
23 | CC(C)C(C)NC(=O)c1ccoc1Cl (stereo not shown) [Compound 26] | no significant phytotoxicity
24 | CC(NC(=O)c1ccoc1Cl)C(C)(C)C (stereo not shown) [Compound 27, 2-chloro-N-(1,2,2-trimethylpropyl)-3-furancarboxamide] | no significant phytotoxicity
25 | CCCCCC(C)NC(=O)c1ccoc1Cl (stereo not shown) [Compound 29] | no significant phytotoxicity
26 | CC(C)CCCC(C)NC(=O)c1ccoc1Cl (stereo not shown) [Compound 30] | no significant phytotoxicity
27 | CC(NC(=O)c1ccoc1Br)C1CC1 (stereo not shown) [Compound 32] | no significant phytotoxicity
28 | CC(C)C(C)NC(=O)c1ccoc1Br (stereo not shown) [Compound 33] | no significant phytotoxicity
29 | CCCC(C)NC(=O)c1ccoc1Br (stereo not shown) [Compound 34] | no significant phytotoxicity
30 | CC(NC(=O)c1ccoc1Br)C(C)(C)C (stereo not shown) [Compound 35] | no significant phytotoxicity
31 | Cc1occc1C(=O)N[C@H](C)C1CC1 [Compound 36] | no significant phytotoxicity
32 | Cc1occc1C(=O)N[C@@H](C)C1CC1 [Compound 37] | no significant phytotoxicity
33 | Cc1occc1C(=O)N[C@H](C)C(C)(C)C [Compound 39] | no significant phytotoxicity
34 | C[C@H](NC(=O)c1ccoc1Cl)C(C)(C)C [Compound 40, 2-chloro-N-[(1S)-1,2,2-trimethylpropyl]-3-furancarboxamide] | no significant phytotoxicity
35 | C[C@H](NC(=O)c1ccoc1Br)C(C)(C)C [Compound 42] | no significant phytotoxicity
36 | CC(C)[C@H](C)NC(=O)c1ccoc1Cl [Compound 43] | no significant phytotoxicity
37 | C[C@@H](NC(=O)c1ccoc1Cl)C1CC1 [Compound 45, 2-chloro-N-[(1R)-1-cyclopropylethyl]-3-furancarboxamide] | no significant phytotoxicity
38 | Cc1occc1C(=O)NC(C1CC1)C1CC1 [Compound 46] | no significant phytotoxicity
39 | Cc1occc1C(=O)NC1(C2CC2)CC1 [Compound 47] | no significant phytotoxicity
40 | Cc1ccsc1C(=O)NC(C)C(C)C (stereo not shown) [Compound 48] | no significant phytotoxicity
41 | CC(NC(=O)c1sccc1Br)C1CC1 (stereo not shown) [Compound 50] | no significant phytotoxicity
42 | Cc1ccsc1C(=O)NC(C1CC1)C1CC1 [Compound 52] | no significant phytotoxicity

Row | SMILES | phytotoxicity
43 | CCC(NC(=O)c1ccoc1Cl)C1CC1 (stereo not shown) [Compound 53] | no significant phytotoxicity
44 | CC(NC(=O)c1ncsc1I)C1CC1 (stereo not shown) [Compound 56] | no significant phytotoxicity
45 | CSc1ccsc1C(=O)NC(C)C1CC1 (stereo not shown) [Compound 58] | no significant phytotoxicity
46 | Cc1ncc(C(=O)NC(C)C2CC2)s1 (stereo not shown) [Compound 60] | no significant phytotoxicity
47 | CC(NC(=O)c1ncsc1Cl)C1CC1 (stereo not shown) [Compound 62] | no significant phytotoxicity
48 | CC(NC(=O)c1ncsc1Br)C1CC1 (stereo not shown) [Compound 63] | no significant phytotoxicity
49 | CC(NC(=O)c1sccc1C(F)(F)F)C1CC1 (stereo not shown) [Compound 65] | no significant phytotoxicity
50 | CCC(NC(=O)c1ccoc1C)C1CC1 (stereo not shown) [Compound 67] | no significant phytotoxicity
51 | Cc1ncsc1C(=O)NC(C)C1CC1 (stereo not shown) [Compound 70] | no significant phytotoxicity
52 | CC(NC(=O)c1ncsc1C(F)(F)F)C1CC1 (stereo not shown) [Compound 72] | no significant phytotoxicity
53 | C[C@@H](NC(=O)c1ccoc1Br)C1CC1 [Compound 74] | no significant phytotoxicity
54 | CC(C)[C@@H](C)NC(=O)c1ccoc1Cl [Compound 75] | no significant phytotoxicity
55 | CC[C@H](C)NC(=O)c1ccoc1Cl [Compound 77] | no significant phytotoxicity
56 | Cc1occc1C(=O)NC(C)CC(C)(C)C (stereo not shown) [Compound 80] | no significant phytotoxicity
57 | CC(C)C(C)NC(=O)c1sccc1C(C)(C)C (stereo not shown) [Compound 89] | no significant phytotoxicity
58 | CC(NC(=O)c1sccc1C(C)(C)C)C(C)(C)C (stereo not shown) [Compound 90] | no significant phytotoxicity
59 | CC(NC(=O)c1sccc1C#N)C(C)(C)C (stereo not shown) [Compound 95] | no significant phytotoxicity
60 | Cc1occc1C(=O)N[C@H](C)C(C)C [Compound 96] | no significant phytotoxicity
61 | Cc1occc1C(=O)N[C@@H](C)C(C)C [Compound 101] | no significant phytotoxicity
